Values joined by “and” are separate entries in the source; they are usually repeats but may differ in a detail not shown here. Equal entries are not always repeated.
What was measured:
Format in all cases: in vivo, rat
[1] = test system: ARI caused by ischemia-reperfusion (I/R); assay: I/R model: TUNEL assay for apoptosis; settings: 30 min ischemia and 24 h reperfusion; 3 mg/kg
Description: (§1) Sprague Dawley rats (250˜300 g) were assigned to four groups: (1) sham surgery group without I/R; (2) I/R+saline vehicle treatment; (3) I/R+SS-20 treatment; (4) I/R+SS-31 treatment. Each experimental group consisted of 8 rats. SS-20 and SS-31 (3 mg/kg, dissolved in saline) were administered to rats 30 min before ischemia and immediately before onset of reperfusion. The control rats were given saline alone on the same schedule.
(§2) Rats were anesthetized with a mixture of ketamine (90 mg/kg, i.p.) and xylazine (4 mg/kg, i.p.). The left renal vascular pedicle was occluded temporarily using a micro-clamp for 30 or 45 min. At the end of the ischemic period, reperfusion was established by removing of the clamp. At that time, the contralateral right kidney was removed. After 24 h reperfusion, animals were sacrificed and blood samples were obtained by cardiac puncture. Renal function was determined by blood urea nitrogen (BUN) and serum creatinine (BioAssay Systems DIUR-500 and DICT-500).
TUNEL Assay for Apoptosis: Renal tissue sections were deparaffinized and rehydrated by xylenes, graded alcohol series and deionized H2O, and then incubated in 20 μg/ml proteinase K for 20 min at RT. In situ cell death detection POD kit (Roche, IN, USA) was used according to the manufacturer's instructions. […]

[2] = test system: heme oxygenase-1 (HO-1) expression; assay: 14-day UUO model: RT-PCR for HO-1
Description: Sprague-Dawley rats underwent unilateral ureteral ligation (UUO) with 4-0 silk suture through a midline abdominal incision under sterile conditions. Ureteral obstruction was carried out by ligating the left ureter at the end of lower ureter, just above the ureterovesical junction.
SS-31 (1 mg/kg or 3 mg/kg; n=8) was administered intraperitoneally, one day prior to UUO and continuing for 14 days. A separate group of animals was given saline, as a vehicle control (n=16).
Polymerase Chain Reaction Analysis: PCR for heme oxygenase-1 (HO-1) isolated from kidneys was performed as follows. Rat kidneys were harvested and were kept at −80° C. until use. Total RNA was extracted using the Trizol®-Chloroform extraction procedure. mRNA was purified using the Oligotex mRNA extraction kit (Qiagen, Valencia, Calif.) according to manufacturer's instructions. mRNA concentration and purity were determined by measuring absorbance at 260 nm. RT-PCR was preformed using Qiagen One-step PCR kit (Qiagen, Valencia, Calif.). PCR was performed in an automated thermal cycler ThermoHybrid, PX2 with an initial activation step for 15 min at 95° C. followed by 35 cycles of denaturation for 45 s at 94° C., annealing for 30 s at 60° C., extension for 60 s at 72° C. […] Bands on gels were visualized by ethidium bromide staining and analyzed using Image J densitometric analysis software. […]

[3] = test system: contrast induced nephropathy in diabetic animal model; assay: CIN in diabetic (HFD/STZ) rats with iohexol, Experiment 3; settings: individual rats of Group C
Description: In this experiment, 20 SD rats were fed with high fat diet for 6 weeks, followed by the injection with low dose streptozotocin (35 mg/kg). After 15 more weeks, the rats were subjected to contrast induced nephropathy study. In addition, we included a normal control group was included in which 9 rats from the same batch on regular chow diet were subjected to the same protocol.
[…] The creatinine clearance was calculated based on the Scr, Ucr and urinary volume. Samples were analyzed by students t-test and differences were considered significant at p<0.05.

[4] = test system: contrast induced nephropathy in diabetic animal model; assay: CIN in diabetic (HFD/STZ) rats with iohexol, Experiment 2
Description: In this experiment, 30 SD rats were fed with high fat diet for 6 weeks, followed by the injection with low dose streptozotocin (30 mg/kg). After 9 more weeks, the rats were used in the contrast induced nephropathy study. The animals were divided into 2 groups with the doses, dosing schedules and study protocol as follows. On day 0, the weight of the animals was determined and glucose and serum samples were collected. On day 1, Scr was assayed and spot urine collection performed. On days 2 and 3, 3 mg/kg SS-31 (Group 1) or a vehicle (Group 2) was administered s.c. 30 min prior to the dye injection (6 mL/kg i.v. tail vein). SS-31 (Group 1) or PBS (Group 2) administration was repeated at 2 h, 1 day, 2, days, 3 days, 4 days, and 5 day post-dye administration. On day 8, serum and urine samples were collected and the rats were euthaniszed to harvest kidneys and vital organs.
Renal function: Renal function was assessed by determining serum and urinary creatinine using Jiancheng Cr kit (Nanjing, P.R.C) at baseline, 24 h, 3 day and 6 days following contrast dye (Iohexol) administration. The creatinine clearance was calculated based on the Scr, Ucr and Urinary volume. Samples were analyzed by students t-test and differences were considered significant at p<0.05.

[5] = test system: ARI caused by ischemia-reperfusion (I/R); assay: I/R model: renal morphologic examination (H&E, PAS); settings: 45 min ischemia and 24 h reperfusion
Description: as §1, §2
Renal Morphologic Examination: Kidneys were fixed in 10% neutral-buffered formalin and embedded in paraffin wax. Three micron sections were stained with hematoxylin-eosin (H&E) and periodic acid-Schiff (PAS) and analyzed by light microscopy. Lesions were scored using the following criteria: [1] mitosis and necrosis of individual cells; [2] necrosis of all cells in adjacent proximal convoluted tubules with survival of surrounding tubules; [3] necrosis confined to the distal third of the proximal convoluted tubule with a band of necrosis extending across the inner cortex; and [4] necrosis affecting all three segments of the proximal convoluted tubule.

Substance: D-Arg-2′6′Dmt-Lys-Phe-NH2 [SS-31]
- TUNEL-positive cells in the medulla (tubular cell apoptosis) [1]: significantly prevented TUNEL-positive cells
- HO-1 expression in the obstructed kidney [2]: decreased HO-1 expression
- Scr T22h ([3]; T22h post dye): 25 μM (2×) and 26 μM and 24 μM and 27 μM and 28 μM and 30 μM and 35 μM and 19 μM
- Scr % change T22 ([3]; T22h vs Tb): 0% and 4% and −11% and 9% and −7% and 17% and 20% and 40% and −34%
- Scr Tb ([3]; baseline): 25 μM (4×) and 27 μM and 23 μM and 29 μM (2×) and 24 μM
- GFR ([4]; Baseline): 159.2±25.1 μl/min/100 g
- Scr ([4]; Baseline): 214.6 ± 15.4 µmol/L
- U protein ([4]; Baseline): 5.4 ± 1.1 mg/4 h
- U vol ([4]; Baseline): 18.1 ± 4.4 mL
- Ucr ([4]; Baseline): 4182.5 ± 699.8 µmol/L
- GFR ([4]; T1 (24 h post dye)): 159.9±9 μl/min/100 g
- Scr ([4]; T1 (24 h post dye)): 168.6 ± 21.9 µmol/L
- U protein ([4]; T1 (24 h post dye)): 3.6 ± 0.8 mg/4 h
- U vol ([4]; T1 (24 h post dye)): 15.2 ± 4.3 mL
- Ucr ([4]; T1 (24 h post dye)): 4488.9 ± 861.6 µmol/L
- GFR ([4]; T2 (3 day post dye)): 100.9 ± 16.7 μl/min/100 g
- Scr ([4]; T2 (3 day post dye)): 236.2 ± 26.6 µmol/L
- U protein ([4]; T2 (3 day post dye)): 4.3 ± 0.9 mg/4 h
- U vol ([4]; T2 (3 day post dye)): 12.8 ± 3.6 mL
- Ucr ([4]; T2 (3 day post dye)): 4744.8 ± 1350.6 µmol/L
- GFR ([4]; T3 (6 days post dye)): 121.5 ± 9.1 μl/min/100 g
- Scr ([4]; T3 (6 days post dye)): 175.3 ± 25.9 µmol/L
- U protein ([4]; T3 (6 days post dye)): 2.4 ± 0.4 mg/4 h
- U vol ([4]; T3 (6 days post dye)): 9.6 ± 2.3 mL
- Ucr ([4]; T3 (6 days post dye)): 4030.7 ± 620 µmol/L
- histopathological score [5]: significantly improved histopathological score
- tubular cell injury (H&E, PAS) [5]: protected brush border and prevented necrosis in the proximal tubules
